In the CheMixHub viscosity set:
± gives the uncertainty stated by the source.

Experiment: xn = mol fraction of the nth substance listed

C=CC(=O)OC + CCOCCOCCO
viscosity [mPa·s], 101 kPa
Settings	293.15 K	298.15 K	303.15 K	308.15 K	313.15 K	318.15 K
x2 = 0.0702	0.594 ± 0.07	0.558 ± 0.07	0.5 ± 0.07	0.469 ± 0.07	0.447 ± 0.07	0.428 ± 0.07
x2 = 0.1404	0.695 ± 0.07	0.65 ± 0.07	0.607 ± 0.07	0.572 ± 0.07	0.539 ± 0.07	0.507 ± 0.07
x2 = 0.2131	0.826 ± 0.07	0.767 ± 0.07	0.715 ± 0.07	0.671 ± 0.07	0.624 ± 0.07	0.589 ± 0.07
x2 = 0.2822	0.95 ± 0.071	0.877 ± 0.07	0.813 ± 0.07	0.756 ± 0.07	0.705 ± 0.07	0.659 ± 0.07
x2 = 0.3597	1.133 ± 0.071	1.038 ± 0.071	0.955 ± 0.071	0.884 ± 0.07	0.82 ± 0.07	0.762 ± 0.07
x2 = 0.4297	1.346 ± 0.071	1.226 ± 0.071	1.109 ± 0.071	1.019 ± 0.071	0.941 ± 0.07	0.872 ± 0.07
x2 = 0.5002	1.574 ± 0.071	1.428 ± 0.071	1.288 ± 0.071	1.171 ± 0.071	1.076 ± 0.071	0.992 ± 0.071
x2 = 0.5703	1.835 ± 0.072	1.648 ± 0.072	1.479 ± 0.071	1.355 ± 0.071	1.236 ± 0.071	1.125 ± 0.071
x2 = 0.6412	2.109 ± 0.072	1.904 ± 0.072	1.715 ± 0.072	1.547 ± 0.071	1.405 ± 0.071	1.286 ± 0.071
x2 = 0.7172	2.478 ± 0.073	2.199 ± 0.073	1.976 ± 0.072	1.782 ± 0.072	1.605 ± 0.071	1.457 ± 0.071
x2 = 0.7906	2.868 ± 0.074	2.529 ± 0.073	2.247 ± 0.073	2.017 ± 0.072	1.819 ± 0.072	1.656 ± 0.072
x2 = 0.8598	3.295 ± 0.076	2.893 ± 0.075	2.534 ± 0.073	2.279 ± 0.073	2.031 ± 0.072	1.836 ± 0.072
x2 = 0.9184	3.692 ± 0.077	3.212 ± 0.076	2.788 ± 0.074	2.508 ± 0.073	2.226 ± 0.073	2.016 ± 0.072

O=C1CCCN1C1CCCCC1 + O
298.15 K, 100 kPa
Settings	viscosity [mPa·s]
x1 = 0.01	1.219 ± 0.016
x1 = 0.0196	1.621 ± 0.019
x1 = 0.0303	2.139 ± 0.023
x1 = 0.0392	2.582 ± 0.026
x1 = 0.0484	3.059 ± 0.03
x1 = 0.0565	3.503 ± 0.035
x1 = 0.0683	4.138 ± 0.042
x1 = 0.079	4.749 ± 0.05
x1 = 0.0878	5.762 ± 0.061
x1 = 0.0982	5.739 ± 0.06
x1 = 0.2023	10.42 ± 0.13
x1 = 0.2989	12.86 ± 0.17
x1 = 0.3988	13.62 ± 0.18
x1 = 0.498	13.33 ± 0.18
x1 = 0.5984	12.65 ± 0.16
x1 = 0.7063	11.87 ± 0.15
x1 = 0.7985	11.27 ± 0.14
x1 = 0.8996	10.76 ± 0.13
x1 = 0.9093	10.71 ± 0.13
x1 = 0.9161	10.68 ± 0.13
x1 = 0.928	10.65 ± 0.13
x1 = 0.9365	10.61 ± 0.13
x1 = 0.9461	10.58 ± 0.13
x1 = 0.9574	10.52 ± 0.13
x1 = 0.9675	10.5 ± 0.13
x1 = 0.9784	10.46 ± 0.13
x2 = 0.0112	10.41 ± 0.13

CCCCCOC(C)=O + ClC(Cl)C(Cl)Cl
303.15 K, 101.3 kPa
Settings	viscosity [mPa·s]
x1 = 0.1051	1.473 ± 0.01
x1 = 0.2031	1.446 ± 0.01
x1 = 0.3044	1.401 ± 0.0099
x1 = 0.4008	1.34 ± 0.0095
x1 = 0.5038	1.256 ± 0.009
x1 = 0.598	1.165 ± 0.0084
x1 = 0.7002	1.061 ± 0.0079
x1 = 0.7935	0.9582 ± 0.0073
x1 = 0.8927	0.8565 ± 0.0068

Cc1ccccc1O + Cc1cccc(O)c1
viscosity [mPa·s]
Settings	298.15 K	313.15 K	323.15 K
101 kPa, x1 = 0.1537	12.16 ± 0.19	–	–
101 kPa, x1 = 0.3061	11.09 ± 0.17	–	–
101 kPa, x1 = 0.3536	10.75 ± 0.16	–	–
101 kPa, x1 = 0.3954	10.5 ± 0.16	–	–
101 kPa, x1 = 0.506	9.939 ± 0.15	–	–
101 kPa, x1 = 0.6371	9.208 ± 0.13	–	–
101 kPa, x1 = 0.7608	8.582 ± 0.12	–	–
101 kPa, x1 = 0.8803	8.086 ± 0.12	–	–
101.3 kPa, x2 = 0.1	–	4.379 ± 0.051	3.086 ± 0.037
101.3 kPa, x2 = 0.2	–	4.539 ± 0.053	3.145 ± 0.037
101.3 kPa, x2 = 0.3	–	4.689 ± 0.055	3.235 ± 0.039
101.3 kPa, x2 = 0.4	–	4.861 ± 0.057	3.32 ± 0.04
101.3 kPa, x2 = 0.5	–	5.048 ± 0.06	3.417 ± 0.041
101.3 kPa, x2 = 0.6	–	5.248 ± 0.062	3.543 ± 0.043
101.3 kPa, x2 = 0.7	–	5.462 ± 0.065	3.666 ± 0.044
101.3 kPa, x2 = 0.8	–	5.693 ± 0.068	3.805 ± 0.046
101.3 kPa, x2 = 0.9	–	5.966 ± 0.071	3.949 ± 0.048

CCCCCCCCCCCCCC(=O)OC + CCC1CCCCC1
viscosity [mPa·s], 100 kPa
Settings	x2 = 0.1016	x2 = 0.2015	x2 = 0.3	x2 = 0.4021	x2 = 0.4997	x2 = 0.6005	x2 = 0.7005	x2 = 0.7999	x2 = 0.9
293.15 K	4.029 ± 0.17	3.57 ± 0.15	3.134 ± 0.13	2.705 ± 0.11	2.312 ± 0.095	1.944 ± 0.08	1.626 ± 0.067	1.342 ± 0.055	1.089 ± 0.045
298.15 K	3.577 ± 0.15	3.181 ± 0.13	2.785 ± 0.11	2.419 ± 0.099	2.079 ± 0.085	1.774 ± 0.073	1.489 ± 0.061	1.237 ± 0.051	1.009 ± 0.041
303.15 K	3.173 ± 0.13	2.839 ± 0.12	2.508 ± 0.1	2.191 ± 0.09	1.893 ± 0.078	1.616 ± 0.066	1.367 ± 0.056	1.14 ± 0.047	0.935 ± 0.038
308.15 K	2.804 ± 0.12	2.513 ± 0.1	2.231 ± 0.091	1.948 ± 0.08	1.701 ± 0.07	1.469 ± 0.06	1.248 ± 0.051	1.045 ± 0.043	0.862 ± 0.035
313.15 K	2.532 ± 0.1	2.282 ± 0.093	2.035 ± 0.083	1.797 ± 0.074	1.578 ± 0.065	1.362 ± 0.056	1.163 ± 0.048	0.978 ± 0.04	0.812 ± 0.033
318.15 K	2.328 ± 0.095	2.104 ± 0.086	1.887 ± 0.077	1.666 ± 0.068	1.469 ± 0.06	1.277 ± 0.052	1.097 ± 0.045	0.93 ± 0.038	0.772 ± 0.032
323.15 K	2.1 ± 0.086	1.912 ± 0.078	1.724 ± 0.071	1.541 ± 0.063	1.361 ± 0.056	1.184 ± 0.048	1.018 ± 0.042	0.866 ± 0.035	0.723 ± 0.03

CCOC(=O)CC + C1CCCCC1
viscosity [mPa·s], 101 kPa
Settings	298.15 K	308.15 K
x1 = 0.0526	0.835 ± 0.084	0.709 ± 0.071
x1 = 0.1334	0.767 ± 0.077	0.65 ± 0.065
x1 = 0.2568	0.686 ± 0.069	0.579 ± 0.058
x1 = 0.3148	0.656 ± 0.066	0.553 ± 0.056
x1 = 0.4538	0.603 ± 0.061	0.505 ± 0.051
x1 = 0.4986	0.59 ± 0.059	0.493 ± 0.049
x1 = 0.5085	0.588 ± 0.059	0.491 ± 0.049
x1 = 0.6558	0.561 ± 0.056	0.465 ± 0.047
x1 = 0.7181	0.556 ± 0.056	0.459 ± 0.046
x1 = 0.8504	0.556 ± 0.056	0.456 ± 0.046
x1 = 0.9312	0.564 ± 0.057	0.459 ± 0.046
